Source: patent publication US20030068615A1, “Polypeptides that bind HIV gp120 and related nucleic acids, antibodies, compositions, and methods of use” (priority 1999, published 2003)
Several values for one entry are separate records, joined by “and”; a condition that tells them apart may be missing. Equal entries are not always repeated. Where two headings read alike, the source gives them in different places.

Molecular target: HIV-1LAI envelope gp120 (Human immunodeficiency virus type 1 group M subtype B, UniProt P03377)
Format: binding
Conditions: for Binding Results For Window Length (counts bound-background), 9: 9-mer starting at the first residue of the printed sequence; for Binding Results For Window Length (counts bound-background), 12: 12-mer starting at the first residue of the printed sequence; for Binding Results For Window Length (counts bound-background), 15: 15-mer starting at the first residue of the printed sequence; for Relative % of Control: mean of two syntheses and binding experiments ± average deviation, wild-type = 100%; for Counts per 20′ Average-background: CCR5 18-mer scan
[1] = Panel A, 21-mers of CD4, empty control 515 and 617
[2] = Panel B, 15-mers and 18-mers of CD4, empty control 575
[3] = STRL33 amino terminus, background subtracted
[4] = Panel D, 9-mers and 12-mers of CD4, empty control […]
[5] = Panel E, 9-mers and 12-mers of CD4, empty control 571
[6] = STRL33 18-mer scan, background subtracted, first of two count columns
[7] = STRL33 18-mer scan, background subtracted, second of two count columns
[8] = radiolabeled HIV-1LAI gp120, background subtracted
[9] = Panel C, 15-mers and 18-mers of CD4, empty control 556
[10] = Panel F, sequential alanine replacements of CD4 polypeptides, duplicate series, empty control 569
[11] = CXCR4 18-mer scan, background subtracted, empty control 0
[12] = CXCR4 18-mer scan, empty control 412

Sequence: EFKIDIVVLAFQKASSIVYKK
- COUNTS of radiolabeled gp120 retained [1]: 649 counts

Sequence: VQLLVFGLTANSDTHLLQ
- COUNTS of radiolabeled gp120 retained [2]: 673 counts

Sequence: SSQEEEQAFLQFSKV
- Binding Results For Window Length (counts bound-background), 9 [3]: 287 counts
- Binding Results For Window Length (counts bound-background), 12 [3]: 4455 counts
- Binding Results For Window Length (counts bound-background), 15 [3]: 4732 counts

Sequence: NLKIEDSDTYIC
- COUNTS of radiolabeled gp120 retained [4]: 639 counts

Sequence: FSFPLAFTV
- COUNTS of radiolabeled gp120 retained [5]: 472 counts

Sequence: FNLDKLICGYHDEAISTV
- radioactive counts recorded in twenty minutes [6]: 1072.5 counts
- radioactive counts recorded in twenty minutes [7]: 1078.5 counts

Sequence: MDYQVSSPAYDINYYTSE [CCR5 (1-18) variant printed 19A]
- Relative % of Control (CCR5 (1-18) alanine variants): 24 ± 7%

Sequence: SIVYKKEGEQVE
- COUNTS of radiolabeled gp120 retained [5]: 543 counts

Sequence: KASSIVYKKEGE
- COUNTS of radiolabeled gp120 retained [5]: 559 counts

Sequence: EQVEFSFPLAFTVEKLTGSGE
- COUNTS of radiolabeled gp120 retained [1]: 765 counts

Sequence: YGFSSFNDSSQEEHQAFL
- Binding Results For Window Length (counts bound-background), 9 [3]: 345 counts
- Binding Results For Window Length (counts bound-background), 12 [3]: 745 counts
- Binding Results For Window Length (counts bound-background), 15 [3]: 645 counts
- Binding Results For Window Length (counts bound-background), 18 (STRL33 amino terminus, 18-mer starting at the first residue of the printed sequence, background subtracted): 1138 counts

Sequence: TDIYLLNLAISDLFFLLT [CCR5 segment 65-82]
- Counts per 20′ Average-background [8]: 38 counts per 20′

Sequence: GLTANSDTHLLQGQS
- COUNTS of radiolabeled gp120 retained [2]: 532 counts

Sequence: MDYQVSSPIYDINAYTSE [CCR5 (1-18) variant Y14A]
- Relative % of Control (CCR5 (1-18) alanine variants): 15 ± 0.3%
- percentage of binding of mutant polypeptide compared to wild-type polypeptide, gp120 (CCR5 alanine mutant peptide, radiolabeled HIV-1LAI gp120): 14.6%

Sequence: APYNIVLLLNTFQEFFGL [CCR5 segment 249-]
- Counts per 20′ Average-background [8]: 1962 counts per 20′

Sequence: FSFPLAFTVEKLTGSGEL
- COUNTS of radiolabeled gp120 retained [9]: 613 counts

Sequence: EVQLLVFGLTANSDTHLL
- COUNTS of radiolabeled gp120 retained [2]: 667 counts

Sequence: LGMTHCCINPIIYAFVGE [CCR5 segment 285-]
- Counts per 20′ Average-background [8]: 282 counts per 20′

Sequence: EEVQALVFGLTANSD
- COUNTS of radiolabeled gp120 retained [10]: 11258 counts and 12603 counts

Sequence: GEQVEFSFPLAFTVEKLT
- COUNTS of radiolabeled gp120 retained [9]: 1643 counts

Sequence: FVGNMLVILILINCKRLK [CCR5 segment 45-62]
- Counts per 20′ Average-background [8]: 62 counts per 20′

Sequence: YAMTSFHYTIMVTEAIAY [STRL33 segment 261-278]
- radioactive counts recorded in twenty minutes [6]: 2688.5 counts
- radioactive counts recorded in twenty minutes [7]: 2359.5 counts

Sequence: LPGIIFTRSQKEGLHYTC
- Counts per 20′ Average-background [8]: 118 counts per 20′

Sequence: CEVEDQKEEVQLLVFGLT
- COUNTS of radiolabeled gp120 retained [2]: 3797 counts

Sequence: SQYQFWKNFQTLKIVILG [CCR5 segment 185-]
- Counts per 20′ Average-background [8]: 1572 counts per 20′

Sequence: SIVYKKEGE
- COUNTS of radiolabeled gp120 retained [5]: 566 counts

Sequence: NFPLIIKNLKIEDSDTYI
- COUNTS of radiolabeled gp120 retained [2]: 627 counts

Sequence: QNQKKVEFKIDIVVL
- COUNTS of radiolabeled gp120 retained [9]: 636 counts

Sequence: THLLQGQSLTLTAES
- COUNTS of radiolabeled gp120 retained [10]: 862 counts and 797 counts

Sequence: SKTFSASHNVEATSMFQL [STRL33 segment 325-342]
- radioactive counts recorded in twenty minutes [6]: 1524.5 counts
- radioactive counts recorded in twenty minutes [7]: 1239.5 counts

Sequence: AHLLQGQSLTLTLES
- COUNTS of radiolabeled gp120 retained [10]: 8602 counts and 5826 counts

Sequence: KRLLSEKKTCQCPERFQKTCS [human CD4 436-456]
- number of radioactive decays (counts) counted (human CD4 21-mer scan, empty control 2075): 1674 counts

Sequence: CTVLQNQKKVEFKID
- COUNTS of radiolabeled gp120 retained [9]: 608 counts

Sequence: SCYCIIISKLSHSKGHQK
- radioactive counts recorded in twenty minutes [11]: 259 counts
- radioactive counts recorded in twenty minutes [12]: 671 counts

Sequence: MEGISIYTSDNYTEEMAS
- Relative % of Control (CXCR4 (1-18) alanine variants): 68 ± 8%

Sequence: DQKEEVQLLVFG
- COUNTS of radiolabeled gp120 retained [4]: 1624 counts

Sequence: IGISIDSFILLEIIKQGC [CXCR4 segment 257-274]
- radioactive counts recorded in twenty minutes [11]: 734 counts
- radioactive counts recorded in twenty minutes [12]: 1146 counts

Sequence: YTINFYTSMLILTCITVD
- radioactive counts recorded in twenty minutes [6]: 351.5 counts
- radioactive counts recorded in twenty minutes [7]: 510.5 counts

Sequence: EGEQVEFSFPLAFTVEKLTGS
- COUNTS of radiolabeled gp120 retained [1]: 739 counts

Sequence: LKIEDSDTY
- COUNTS of radiolabeled gp120 retained [4]: 492 counts

Sequence: IVYKKEGEQVEFSFPLAF
- COUNTS of radiolabeled gp120 retained [9]: 5382 counts
